The target in one experiment is PKCa (Homo sapiens, UniProt P17252). Briefly: Protein kinase activity in the presence of compound. It is filed as biochemical. The note with it: read-out: Residual activity PKCa. As to the method:
(§1) The action of the compound of formula (14) was tested on a selection of 29 different protein kinases. The activity of these enzymes was measured in the presence of 10 μM of compound, according to the general methodology described by Bain et al. (2003) Biochem. J. 371:199-204 and Davies et al. (2000) Biochem. J. 351:95-105.
(§2) Residual enzyme activity of protein kinases in the presence of inhibitor compounds at the concentration given (expressed as a percentage of the activity measured in the absence of inhibitors). The results obtained for gossypol and gossypolone are given by way of comparison.

The target in another experiment is SAPK2a/p38 (Homo sapiens, UniProt Q16539). The experiment is described as above. It is filed as biochemical. The note with it: read-out: Residual activity SAPK2a/p38. As to the method: as §1, §2
In another experiment the test system is AMPK. The experiment is described as above. It is filed as biochemical. The conditions noted are these: 10 μM compound; percentage of the activity measured in the absence of inhibitors. As to the method:
as §1, §2

Another experiment has as its target SAPK2b/p38β2 (Homo sapiens, UniProt Q15759). The description is as above. It counts as biochemical. The note with it: read-out: Residual activity SAPK2b/p38β2. The procedure:
as §1, §2

A further experiment concerns the target ROCK-II (Homo sapiens, UniProt O75116). The experiment is described as above. It is filed as biochemical. The conditions noted are these: read-out: Residual activity ROCK-II. The procedure: as §1, §2
The target of the next experiment is MAPKAP-K2 (Homo sapiens, UniProt P49137). The experiment is described as above. It counts as biochemical. The note with it: read-out: Residual activity MAPKAP-K2. As to the method: as §1, §2
The target in another experiment is T1, SAPK3/p38g (Homo sapiens, UniProt P53778).
T1 sequence (P53778 1-367): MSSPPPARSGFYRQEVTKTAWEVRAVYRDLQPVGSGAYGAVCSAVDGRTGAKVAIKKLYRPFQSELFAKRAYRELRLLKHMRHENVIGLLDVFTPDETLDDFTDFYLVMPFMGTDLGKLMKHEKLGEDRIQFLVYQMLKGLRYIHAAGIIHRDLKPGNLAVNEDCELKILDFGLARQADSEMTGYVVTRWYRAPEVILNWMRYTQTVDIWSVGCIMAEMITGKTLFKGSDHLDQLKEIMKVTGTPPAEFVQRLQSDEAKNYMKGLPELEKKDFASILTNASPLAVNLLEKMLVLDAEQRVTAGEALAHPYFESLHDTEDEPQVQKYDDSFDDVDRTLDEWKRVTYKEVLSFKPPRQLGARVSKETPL
Described as above. It is filed as biochemical. The note with it: read-out: Residual activity SAPK3/p38g. As to the method: as §1, §2

A further experiment concerns the target T2, SAPK4/p38d (Homo sapiens, UniProt O15264).
T2 sequence (O15264 1-365): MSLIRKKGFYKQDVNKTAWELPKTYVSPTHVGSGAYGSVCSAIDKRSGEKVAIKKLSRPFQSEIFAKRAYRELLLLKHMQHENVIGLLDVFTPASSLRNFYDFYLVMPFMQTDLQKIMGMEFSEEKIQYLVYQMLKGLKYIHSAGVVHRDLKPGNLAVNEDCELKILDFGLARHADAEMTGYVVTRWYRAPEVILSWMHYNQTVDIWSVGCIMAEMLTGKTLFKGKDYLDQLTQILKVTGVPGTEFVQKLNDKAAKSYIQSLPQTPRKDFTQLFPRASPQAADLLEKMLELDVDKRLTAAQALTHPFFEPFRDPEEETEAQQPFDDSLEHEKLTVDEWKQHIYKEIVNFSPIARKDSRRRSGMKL
The description is as above. It is filed as biochemical. The note with it: read-out: Residual activity SAPK4/p38d. As to the method: as §1, §2

In another experiment the target is DYRK1a (Homo sapiens, UniProt Q13627). The description is as above. The conditions noted are these: read-out: Residual activity DYRK1a. It is filed as biochemical. As to the method:
as §1, §2

The next experiment concerns the target CDK2/cyclin A (Homo sapiens, UniProt P24941). The experiment is described as above. It counts as biochemical. The conditions noted are these: read-out: Residual activity CDK2/cyclin A. As to the method: as §1, §2
A further experiment concerns the target T3, SGK (Homo sapiens, UniProt O00141).
T3 sequence (O00141 1-431): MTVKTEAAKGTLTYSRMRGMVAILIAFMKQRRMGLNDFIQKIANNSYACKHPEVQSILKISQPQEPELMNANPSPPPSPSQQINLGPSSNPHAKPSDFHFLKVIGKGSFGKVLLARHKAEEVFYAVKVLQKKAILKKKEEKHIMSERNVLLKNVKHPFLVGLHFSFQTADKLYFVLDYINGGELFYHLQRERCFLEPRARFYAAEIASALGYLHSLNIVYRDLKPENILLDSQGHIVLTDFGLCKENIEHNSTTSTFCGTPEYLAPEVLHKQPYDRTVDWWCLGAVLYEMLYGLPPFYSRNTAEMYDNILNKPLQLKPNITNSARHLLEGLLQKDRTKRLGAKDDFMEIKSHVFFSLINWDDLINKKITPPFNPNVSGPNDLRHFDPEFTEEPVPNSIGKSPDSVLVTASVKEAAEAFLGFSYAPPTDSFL
Described as above. The conditions noted are these: for remaining activity at 10 µM: read-out: Residual activity SGK. It is filed as biochemical. As to the method: as §1, §2

The test system of a further experiment is KB tumour cell line. Briefly: Cytotoxicity vis-à-vis the KB tumour cell line. The conditions noted are these: Homo sapiens. It counts as cell-based. As to the method:
The cytotoxicity of the compound vis-à-vis the KB tumour cell line was measured as is described in Dao et al. (2003) Bioorg. Med. Chem. 11:2001-2006.

[1] abbreviates: 10 μM compound, percentage of the activity measured in the absence of inhibitors.

Data on four molecules can be found in patent US7851510B2, “Gossypol derivatives, production method thereof and uses of same” (Centre National de la Recherche Scientifique (C.N.R.S.), priority 2004, dated 2010).

The term IC50 denotes the concentration needed to halve the response being measured.

Read-outs that look alike come from different tables or passages of the source.

Sequence of SAPK2b/p38β2 (Q15759 whole entry): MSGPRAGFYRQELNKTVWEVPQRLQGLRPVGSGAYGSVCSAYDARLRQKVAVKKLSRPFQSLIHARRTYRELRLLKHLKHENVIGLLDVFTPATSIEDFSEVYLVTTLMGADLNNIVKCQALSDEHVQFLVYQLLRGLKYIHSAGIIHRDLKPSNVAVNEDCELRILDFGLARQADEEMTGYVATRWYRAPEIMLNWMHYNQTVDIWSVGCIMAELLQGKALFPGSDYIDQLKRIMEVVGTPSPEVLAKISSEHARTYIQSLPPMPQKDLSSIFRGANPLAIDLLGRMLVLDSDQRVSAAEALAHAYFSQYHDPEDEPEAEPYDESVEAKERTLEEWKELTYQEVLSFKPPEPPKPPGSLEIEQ
Sequence of SAPK2a/p38 (Q16539 whole entry): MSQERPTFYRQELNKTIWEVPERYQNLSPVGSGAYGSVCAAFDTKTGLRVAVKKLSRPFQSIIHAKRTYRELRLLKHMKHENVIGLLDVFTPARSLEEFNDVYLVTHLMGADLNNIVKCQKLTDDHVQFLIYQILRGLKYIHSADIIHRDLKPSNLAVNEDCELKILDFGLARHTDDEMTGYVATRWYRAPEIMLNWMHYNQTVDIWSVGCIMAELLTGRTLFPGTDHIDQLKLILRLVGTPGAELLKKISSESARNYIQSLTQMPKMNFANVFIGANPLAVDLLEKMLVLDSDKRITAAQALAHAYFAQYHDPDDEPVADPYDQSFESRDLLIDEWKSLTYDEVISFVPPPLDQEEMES
Sequence of MAPKAP-K2 (P49137 whole entry, species assumed): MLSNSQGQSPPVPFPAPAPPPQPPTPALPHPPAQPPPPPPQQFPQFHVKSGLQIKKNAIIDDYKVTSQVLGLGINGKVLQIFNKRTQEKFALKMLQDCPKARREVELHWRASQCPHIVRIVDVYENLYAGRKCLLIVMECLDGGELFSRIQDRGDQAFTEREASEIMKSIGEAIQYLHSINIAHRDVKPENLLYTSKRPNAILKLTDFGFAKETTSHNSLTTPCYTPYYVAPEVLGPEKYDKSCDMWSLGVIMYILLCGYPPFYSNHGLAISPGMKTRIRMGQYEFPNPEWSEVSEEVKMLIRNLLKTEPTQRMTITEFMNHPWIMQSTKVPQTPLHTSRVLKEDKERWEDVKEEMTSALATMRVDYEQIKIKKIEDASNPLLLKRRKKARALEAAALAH
Sequence of ROCK-II (O75116 whole entry, species assumed): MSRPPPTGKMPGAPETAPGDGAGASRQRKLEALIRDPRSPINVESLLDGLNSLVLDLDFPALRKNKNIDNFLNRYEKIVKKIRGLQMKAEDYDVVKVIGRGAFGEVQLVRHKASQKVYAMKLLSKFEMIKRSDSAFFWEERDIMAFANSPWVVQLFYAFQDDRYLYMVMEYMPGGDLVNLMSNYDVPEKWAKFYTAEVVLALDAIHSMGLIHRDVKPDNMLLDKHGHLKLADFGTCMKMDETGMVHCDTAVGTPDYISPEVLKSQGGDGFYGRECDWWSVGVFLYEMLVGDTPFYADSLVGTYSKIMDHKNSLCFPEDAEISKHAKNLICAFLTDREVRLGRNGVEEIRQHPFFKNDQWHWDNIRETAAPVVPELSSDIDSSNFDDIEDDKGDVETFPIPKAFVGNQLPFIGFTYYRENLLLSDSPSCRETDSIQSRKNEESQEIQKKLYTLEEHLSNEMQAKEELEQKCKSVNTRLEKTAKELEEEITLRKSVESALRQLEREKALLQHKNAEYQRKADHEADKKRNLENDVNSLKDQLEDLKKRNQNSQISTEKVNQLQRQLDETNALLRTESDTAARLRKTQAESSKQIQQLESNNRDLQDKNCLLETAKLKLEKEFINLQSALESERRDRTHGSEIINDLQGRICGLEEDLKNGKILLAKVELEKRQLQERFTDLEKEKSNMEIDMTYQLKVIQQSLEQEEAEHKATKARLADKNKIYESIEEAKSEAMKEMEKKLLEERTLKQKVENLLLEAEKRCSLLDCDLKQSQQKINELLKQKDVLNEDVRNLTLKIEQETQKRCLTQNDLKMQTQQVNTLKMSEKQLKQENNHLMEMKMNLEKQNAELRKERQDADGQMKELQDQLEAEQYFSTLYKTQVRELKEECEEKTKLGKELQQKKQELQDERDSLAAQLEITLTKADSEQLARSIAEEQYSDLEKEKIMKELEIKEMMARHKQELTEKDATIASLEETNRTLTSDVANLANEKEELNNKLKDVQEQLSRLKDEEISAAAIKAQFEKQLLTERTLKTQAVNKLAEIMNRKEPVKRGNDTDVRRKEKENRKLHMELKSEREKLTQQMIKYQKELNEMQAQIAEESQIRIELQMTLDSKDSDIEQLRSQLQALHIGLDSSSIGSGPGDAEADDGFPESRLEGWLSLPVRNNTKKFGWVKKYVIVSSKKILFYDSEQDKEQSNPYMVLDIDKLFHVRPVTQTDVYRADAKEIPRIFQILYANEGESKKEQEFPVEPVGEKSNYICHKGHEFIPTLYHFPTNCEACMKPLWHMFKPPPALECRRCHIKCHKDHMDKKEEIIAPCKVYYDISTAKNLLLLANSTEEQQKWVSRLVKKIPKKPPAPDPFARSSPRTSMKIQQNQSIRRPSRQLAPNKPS

In the case of `CC1=C(C2=C(C)C(=O)c3c(c(O)c(O)c(O)c3C(C)C)C2=O)C(=O)c2c(O)c(O)c(O)c(C(C)C)c2C1=O` [Compound (4), 6,7,8,6′,7′,8′-hexahydroxy-5,5′-diisopropyl-3,3′-dimethyl-[2.2′]binaphthalenyl-1,4,1′,4′-tetraone], the remaining activity at 10 µM at PKCa was 85%; on SAPK2a/p38, 105%; on SAPK2b/p38β2 it was 124%; at ROCK-II, 75%; at MAPKAP-K2, 28%; on SAPK3/p38g, 89%. Moreover, the remaining activity at 10 µM at SAPK4/p38d was found to be 88%; on DYRK1a, 25%; on CDK2/cyclin A, 113%; at SGK, 4%. The “Residual activity AMPK” value with AMPK is recorded as 61%. Further, the “Reduction of the activity of SGK” value on SGK (10 μM compound) came out at 96%. Moreover, half-maximal inhibition with KB tumour cell line (IC50) was put at 1000 nM.

In the case of `CC1=C(C2=C(C)C(=O)c3c(c(CSCCO)c(O)c(O)c3C(C)C)C2=O)C(=O)c2c(CSCCO)c(O)c(O)c(C(C)C)c2C1=O` [Compound (14), 6,7,6′,7′-tetrahydroxy-8,8′-bis-(2-hydroxy-ethylsulphanylmethyl)-5,5′-diisopropyl-3,3′-dimethyl-[2,2′]binaphthalenyl-1,4,1′,4′-tetraone], the remaining activity at 10 µM at PKCa (setting [1]) amounted to 86%; on SAPK2a/p38 (setting [1]), 102%; at SAPK2b/p38β2 (setting [1]), 113%; at ROCK-II (setting [1]) it was 73%; on MAPKAP-K2 (setting [1]), 36%; on SAPK3/p38g (setting [1]), 76%. The remaining activity at 10 µM on SAPK4/p38d (setting [1]) was 85%; on DYRK1a (setting [1]), 16%; at CDK2/cyclin A (setting [1]) it was 111%; at SGK (setting [1]) it was 7%. Moreover, the “Residual activity AMPK” value with AMPK was found to be 70%. Moreover, the “Reduction of the activity of SGK” value on SGK (10 μM compound) is recorded as 93%.

For `Cc1cc2c(C(C)C)c(O)c(O)c(C=O)c2c(O)c1-c1c(C)cc2c(C(C)C)c(O)c(O)c(C=O)c2c1O` [Gossypol, gossypol], the remaining activity at 10 µM at PKCa is 96%; at SAPK2a/p38, 99%; at SAPK2b/p38β2 it was 125%; at ROCK-II, 80%; at MAPKAP-K2, 56%; at SAPK3/p38g, 108%. Besides, the remaining activity at 10 µM was 66% on SAPK4/p38d, 21% at DYRK1a, 97% at CDK2/cyclin A and 14% on SGK. For the same molecule, in the experiment with AMPK, the “Residual activity AMPK” value was 72%.

As to `CC1=C(C2=C(C)C(=O)c3c(c(C=O)c(O)c(O)c3C(C)C)C2=O)C(=O)c2c(C=O)c(O)c(O)c(C(C)C)c2C1=O` [Gossypolone, gossypolone, reference compound], the remaining activity at 10 µM at PKCa came to 78%; on SAPK2a/p38, 108%; at SAPK2b/p38β2, 102%; at ROCK-II, 54%; at MAPKAP-K2 it was 28%; on SAPK3/p38g it was 83%. The remaining activity at 10 µM on SAPK4/p38d turned out to be 75%; at DYRK1a, 27%; on CDK2/cyclin A, 90%; at SGK it was 3%. Besides, in the experiment with AMPK, the “Residual activity AMPK” value worked out at 66%.
